Measurements: US20050065187A1, “Novel antimicrobial aryloxazolidinone compounds” (priority 2003, published 2005)
Values after ≈ are worked out from the molar mass of the structure shown.

Tests used:
Experiment in all cases: Antibacterial assay (Test A), microtitration MIC
SAUR 9213 = type: cell-based, S. aureus; details: Staphylococcus aureus; Minimum Inhibitory Concentration, strain SAUR 9213; read-out: SAUR 9213 MIC
Procedure: (§1) Test A—Antibacterial Assays
(§2) The compounds of the present invention were tested against an assortment of Gram-negative and Gram-positive organisms using standard microtitration techniques (Cohen et. al., Antimicrob., 1985;28:766; Heifetz, et. al., Antimicrob., 1974;6:124).

HINF 30063 = type: cell-based, H. influenza; details: Minimum Inhibitory Concentration, strain HINF 30063
Procedure: as §1, §2

MC 30603 = type: cell-based, M. catarrhalis; details: Moraxella catarrhalis; Minimum Inhibitory Concentration, strain MC 30603; read-out: MC 30603 MIC
Procedure: as §1, §2

SPNE 9912 = type: cell-based, S. pneumoniae; details: Streptococcus pneumoniae; Minimum Inhibitory Concentration, strain SPNE 9912; read-out: SPNE 9912 MIC
Procedure: as §1, §2

SMILES | MIC (SAUR 9213) [µg/mL] | MIC (HINF 30063) [µg/mL] | MIC (MC 30603) [µg/mL] | MIC (SPNE 9912) [µg/mL]
NC(=O)[C@H]1CN(c2ccc(C3CCC(=O)CC3)c(F)c2)C(=O)O1 [Example 24, 3-[3-Fluoro-4-(4-oxo-cyclohexyl)-phenyl]-2-oxo-oxazolidine-5-carboxylic acid amide] | 1 (≈ 3.12 µM) | 32 (≈ 99.9 µM) | 32 (≈ 99.9 µM) | 2 (≈ 6.24 µM)
CC(=O)NC[C@H]1CN(c2ccc(C3CCC(=NO)CC3)c(F)c2)C(=O)O1 (some centres unmarked) [Example 21, N-{3-[3-Fluoro-4-(4-hydroxyimino-cyclohexyl)-phenyl]-2-oxo-oxazolidin-5-ylmethyl}-acetamide] | 1 (≈ 2.75 µM) | 16 (≈ 44 µM) | 8 (≈ 22 µM) | 0.5 (≈ 1.38 µM)
